Source: patent US20260166021A1, “POLYMORPHIC FORMS OF A SOLUBLE EPOXIDE HYDROLASE INHIBITOR AND FORMULATIONS THEREOF” (EicOsis, LLC, priority 2022, published 2026)

Assays:
[1] = Differential scanning calorimetry (DSC): heat of fusion, thermal events; format: physicochemical
Protocol: Differential scanning calorimetry analyses were performed on each sample “as is.” Unless otherwise specified, samples were weighed in an aluminum pan, covered with a pierced lid, and then crimped and analyzed from 30-300° C. ramped at 10° C./min.
The DSC data were used to determine the heat of fusion for Forms A, B, D, and F, based on their heats of fusion as measured during conversion from Form C.

[2] = Thermal gravimetric analysis (TGA); format: physicochemical
Protocol: Thermal gravimetric analyses were performed on each sample “as is.” Unless otherwise noted, samples were weighed in an alumina crucible and analyzed from 30-350° C. at 10° C./min.
Form C weight loss at 39° C.-50° C. likely reflected methanol loss.

With `CC[C@H](C)C(=O)N1CCC(NC(=O)Nc2ccc(OC(F)(F)F)c(F)c2)CC1` [C] the “DSC Thermal Events, Endo: dehydration of bound water of pattern C” value [1] was 73° C.: dehydration of bound water of, the “DSC Thermal Events, Endo: melting of pattern A” value [1] was 109 °C melting of pattern A and the “DSC Thermal Events, Endo: melting of pattern F” value [1] was 147 °C melting of pattern F. The “DSC Thermal Events, Exo: crystallization of pattern F” value [1] was 114 °C crystallization of pattern F and the “TGA: wt change” value ([2]; at range 39° C.-50° C.) was 1.4% wt change at.

With `CC[C@H](C)C(=O)N1CCC(NC(=O)Nc2ccc(OC(F)(F)F)c(F)c2)CC1` [E] the “DSC Thermal Events, Endo: dehydration of bound water of pattern E” value [1] was 121 °C dehydration of bound water of, the “DSC Thermal Events, Endo: melting of pattern D” value [1] was 142 °C melting of pattern D and the “DSC Thermal Events, Endo: melting of pattern F” value [1] was 148 °C melting of pattern F. The “DSC Thermal Events, Exo: crystallization of pattern D” value [1] was 126 °C crystallization of pattern D, the “DSC Thermal Events, Exo: crystallization of pattern F” value [1] was 144 °C crystallization of pattern F and the “TGA: wt change” value ([2]; at range 116° C.-119° C.) was 4.7% wt change at.

With `CC[C@H](C)C(=O)N1CCC(NC(=O)Nc2ccc(OC(F)(F)F)c(F)c2)CC1` [H] the “DSC Thermal Events, Endo: dehydration of bound water of pattern C” value [1] was 83° C.: dehydration of bound water of, the “DSC Thermal Events, Endo: desolvation of pattern H” value [1] was 129 °C desolvation of pattern H and the “DSC Thermal Events, Endo: melting of pattern A” value [1] was 140 °C melting of pattern A. For the same compound, the “DSC Thermal Events, Endo: melting of pattern F” value [1] was 148 °C melting of pattern F, the “DSC Thermal Events, Exo: crystallization of pattern D” value [1] was 133 °C crystallization of pattern D and the “DSC Thermal Events, Exo: crystallization of pattern F” value [1] was 142 °C crystallization of patter F. For the same compound, the “TGA: wt change” value ([2]; at 83° C.) was “No detectable wt” and the “TGA: wt change” value ([2]; at range […] C.-126° C.) was 7.2% wt change at.

With `CC[C@H](C)C(=O)N1CCC(NC(=O)Nc2ccc(OC(F)(F)F)c(F)c2)CC1` [I] the “DSC Thermal Events, Endo: melting of pattern I” value [1] was 144 °C melting of pattern I.

In the case of `CC[C@H](C)C(=O)N1CCC(NC(=O)Nc2ccc(OC(F)(F)F)c(F)c2)CC1` [J], the “DSC Thermal Events, Endo: dehydration of bound water/desolvation of pattern J or another unknown pattern” value [1] is reported as 129 °C dehydration of bound, the “DSC Thermal Events, Endo: melting of pattern B” value [1] is reported as 146 °C melting of pattern B and the “DSC Thermal Events, Endo: melting of pattern F” value [1] is reported as 149 °C melting of pattern F. The “DSC Thermal Events, Endo: melting of unknown pattern” value [1] was 140 °C melting of unknown, the “DSC Thermal Events, Exo: crystallization of unknown pattern” value [1] was 103 °C crystallization of unknown and the “DSC Thermal Events, Endo: dehydration of bound water/desolvation of pattern J” value ([1]; major peak with a shoulder) was 91 °C dehydration of bound. For the same compound, the “TGA: wt change” value ([2]; at range 75° C.-82° C.) was 3.7% wt change at and the “TGA: wt change” value ([2]; at range 116° C.-[…] C.) was 4.6% wt change at.

In the case of `CC[C@H](C)C(=O)N1CCC(NC(=O)Nc2ccc(OC(F)(F)F)c(F)c2)CC1` [K], the “DSC Thermal Events, Endo: dehydration of bound water/desolvation of pattern K” value [1] is reported as 127 °C dehydration of bound water/, the “DSC Thermal Events, Endo: melting of pattern D” value [1] is reported as 142 °C melting of pattern D and the “DSC Thermal Events, Endo: melting of pattern F” value [1] is reported as 148 °C melting of pattern F. The “DSC Thermal Events, Exo: crystallization of pattern D” value [1] was 130 °C crystallization of pattern D and the “TGA: wt change” value ([2]; at range 120° C.-[…] C.) was 5.0% wt change at.

For `CC[C@H](C)C(=O)N1CCC(NC(=O)Nc2ccc(OC(F)(F)F)c(F)c2)CC1` [L], the “DSC Thermal Events, Endo: melting of pattern D” value [1] was 141 °C melting of pattern D, the “DSC Thermal Events, Endo: melting of pattern F” value [1] was 148 °C melting of pattern F and the “DSC Thermal Events, Exo: crystallization of pattern D” value [1] was 138 °C crystallization of pattern D. For the same compound, the “DSC Thermal Events, Exo: crystallization of pattern F” value [1] was 143 °C crystallization of patter F, the “TGA: wt change” value ([2]; at range 107° C.-[…] C.) was 0.4% wt change at and the “TGA: wt change” value ([2]; at range […] C.-135° C.) was 0.3% wt change at.

For `CC[C@H](C)C(=O)N1CCC(NC(=O)Nc2ccc(OC(F)(F)F)c(F)c2)CC1` [Lot 3], the “Endotherm (likely dehydration of bound water)” value ([1]; DSC thermogram of lot) was 84 °C, the “Endotherm (melting of Form A)” value ([1]; DSC thermogram of lot) was 111 °C (melting of Form A), and the “Exotherm (crystallization of Form B)” value ([1]; DSC thermogram of lot) was 117 °C (crystallization of.
